Where “and” joins values, the source holds several entries; their conditions need not be identical. Equal values may be shown once. Toxic doses and inconclusive results are not listed. How the source made its calls: active means survival T/C of 150% or more; inactive means T/C below 125% in these data.
System: CD2F1 mice, L1210 leukemia ip, survival T/C
Assay: NCI In Vivo Anticancer Drug Screen. Data for tumor model L1210 Leukemia (intraperitoneal) in CD2F1 (CDF1) mice
Details: higher = longer survival
In short: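 Ratio T/C, where T is the treated-group value and C the vehicle-dosed control value, from mice implanted with a transplantable tumor.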

[1] = endpoint: mean survival time, dose: 100.0 mg/kg/injection, schedule: Q04DX003 (ip), vehicle: saline with Tween-80
[2] = endpoint: mean survival time, dose: 6.25 mg/kg/injection, schedule: Q01DX009 (ip), vehicle: saline with Tween-80
[3] = endpoint: mean survival time, dose: 12.5 mg/kg/injection, schedule: Q01DX009 (ip), vehicle: saline with Tween-80
[4] = endpoint: mean survival time, dose: 12.5 mg/kg/injection, schedule: Q04DX003 (ip), vehicle: saline with Tween-80
[5] = endpoint: mean survival time, dose: 25.0 mg/kg/injection, schedule: Q01DX009 (ip), vehicle: saline with Tween-80
[6] = endpoint: mean survival time, dose: 25.0 mg/kg/injection, schedule: Q04DX003 (ip), vehicle: saline with Tween-80
[7] = endpoint: mean survival time, dose: 50.0 mg/kg/injection, schedule: Q01DX009 (ip), vehicle: Klucel (hydroxypropylcellulose) (HPC)
[8] = endpoint: mean survival time, dose: 100.0 mg/kg/injection, schedule: Q01DX009 (ip), vehicle: Klucel (hydroxypropylcellulose) (HPC)
[9] = endpoint: mean survival time, dose: 200.0 mg/kg/injection, schedule: Q01DX009 (ip), vehicle: Klucel (hydroxypropylcellulose) (HPC)
[10] = endpoint: mean survival time, dose: 100.0 mg/kg/injection, schedule: Q04DX002 (ip), vehicle: saline with Tween-80
[11] = endpoint: mean survival time, dose: 400.0 mg/kg/injection, schedule: Q04DX002 (ip), vehicle: saline with Tween-80
[12] = endpoint: mean survival time, dose: 100.0 mg/kg/injection, schedule: Q01DX001 (ip), vehicle: saline
[13] = endpoint: mean survival time, dose: 200.0 mg/kg/injection, schedule: Q01DX001 (ip), vehicle: saline
[14] = endpoint: mean survival time, dose: 50.0 mg/kg/injection, schedule: Q04DX003 (ip), vehicle: saline with Tween-80
[15] = endpoint: mean survival time, dose: 50.0 mg/kg/injection, schedule: Q01DX009 (ip), vehicle: saline with Tween-80
[16] = endpoint: mean survival time, dose: 100.0 mg/kg/injection, schedule: Q01DX009 (ip), vehicle: saline with Tween-80

Measured: T/C

CC(C)NCC(O)COc1ccc(O)c(O)c1 (stereo unspecified)
inactive: endpoint: median survival time, dose: 12.5 mg/kg/injection, schedule: Q01DX009 (ip), vehicle: saline 101 % of control | endpoint: median survival time, dose: 25.0 mg/kg/injection, schedule: Q01DX009 (ip), vehicle: saline 97 % of control and 101 % of control | endpoint: median survival time, dose: 50.0 mg/kg/injection, schedule: Q01DX009 (ip), vehicle: saline 98 % of control and 107 % of control | endpoint: median survival time, dose: 100.0 mg/kg/injection, schedule: Q01DX009 (ip), vehicle: saline 107 % of control and 112 % of control | endpoint: median survival time, dose: 200.0 mg/kg/injection, schedule: Q01DX009 (ip), vehicle: saline 90 % of control

O=CN(/C=C1\CC(OO)NC1=O)Cc1ccccc1 (stereo unspecified)
inactive: endpoint: mean survival time, dose: 75.0 mg/kg/injection, schedule: Q01DX001 (ip), vehicle: saline 102 % of control | endpoint: mean survival time, dose: 150.0 mg/kg/injection, schedule: Q01DX001 (ip), vehicle: saline 108 % of control

CC1CC[N-]CC1.CC1CC[N-]CC1.CS(C)=O.[Cl][Rh]([Cl])[Cl]
inactive: [1] 96 % of control

CC(C)(C)C=O
inactive: endpoint: mean survival time, dose: 100.0 mg/kg/injection, schedule: Q01DX009 (ip), vehicle: saline 95 % of control | endpoint: mean survival time, dose: 200.0 mg/kg/injection, schedule: Q01DX009 (ip), vehicle: saline 102 % of control | endpoint: mean survival time, dose: 400.0 mg/kg/injection, schedule: Q01DX009 (ip), vehicle: saline 96 % of control

O=C1/C(=C(/c2ccccc2)N2CCOCC2)Cc2ccccc21
inactive: [2] 90 % of control | endpoint: mean survival time, dose: 6.25 mg/kg/injection, schedule: Q04DX003 (ip), vehicle: saline with Tween-80 99 % of control | [3] 97 % of control | [4] 91 % of control | [5] 92 % of control | [6] 98 % of control

CC(=O)NC(C)(NC(C)=O)C(=O)O
inactive: [7] 95 % of control | [8] 98 % of control | [9] 95 % of control

CCOC(=O)C1(C(C)CC)SCCCS1 (stereo unspecified)
inactive: [10] 97 % of control | endpoint: mean survival time, dose: 200.0 mg/kg/injection, schedule: Q04DX002 (ip), vehicle: saline with Tween-80 97 % of control | [11] 94 % of control

CC1(Br)C(Sc2ccccc2[N+](=O)[O-])=Nc2ccccc21 (stereo unspecified)
inactive: [7] 94 % of control | [8] 94 % of control | [9] 94 % of control

O=[N+]([O-])c1ccc(C[n+]2ccccc2)cc1
inactive: endpoint: mean survival time, dose: 5.0 mg/kg/injection, schedule: Q01DX009 (ip), vehicle: saline 87 % of control | endpoint: mean survival time, dose: 5.0 mg/kg/injection, schedule: Q04DX003 (ip), vehicle: saline 104 % of control | endpoint: mean survival time, dose: 10.0 mg/kg/injection, schedule: Q01DX009 (ip), vehicle: saline 90 % of control | endpoint: mean survival time, dose: 10.0 mg/kg/injection, schedule: Q04DX003 (ip), vehicle: saline 108 % of control | endpoint: mean survival time, dose: 20.0 mg/kg/injection, schedule: Q01DX009 (ip), vehicle: saline 95 % of control | endpoint: mean survival time, dose: 20.0 mg/kg/injection, schedule: Q04DX003 (ip), vehicle: saline 100 % of control

CC(NC(=O)c1cnc2ccccc2n1)C(=O)NC(C(=O)O)C(C)C (stereo unspecified)
inactive: [12] 100 % of control | [13] 100 % of control | endpoint: mean survival time, dose: 400.0 mg/kg/injection, schedule: Q01DX001 (ip), vehicle: saline 102 % of control

CC/S(=N\S(=O)(=O)c1ccc(C)cc1)c1ccccc1 (stereo unspecified)
inactive: [1] 104 % of control | endpoint: mean survival time, dose: 200.0 mg/kg/injection, schedule: Q04DX003 (ip), vehicle: saline with Tween-80 108 % of control | endpoint: mean survival time, dose: 400.0 mg/kg/injection, schedule: Q04DX003 (ip), vehicle: saline with Tween-80 98 % of control

O=S(=O)(F)c1ccccc1
inactive: [6] 95 % of control | [14] 100 % of control | [1] 95 % of control and 97 % of control

CC(C)/C=N\O
inactive: endpoint: mean survival time, dose: 50.0 mg/kg/injection, schedule: Q01DX001 (ip), vehicle: saline 107 % of control | [12] 110 % of control | [13] 107 % of control

CC(=O)NC(CCC(=O)O)C(=O)O.[NH-]C1CCCCC1[NH-].[Pt+2] (stereo unspecified)
inactive: endpoint: median survival time, dose: 6.25 mg/kg/injection, schedule: Q04DX003 (ip), vehicle: saline 97 % of control | endpoint: median survival time, dose: 12.5 mg/kg/injection, schedule: Q04DX003 (ip), vehicle: saline 110 % of control | endpoint: median survival time, dose: 25.0 mg/kg/injection, schedule: Q04DX003 (ip), vehicle: saline 102 % of control | endpoint: median survival time, dose: 50.0 mg/kg/injection, schedule: Q04DX003 (ip), vehicle: saline 97 % of control | endpoint: median survival time, dose: 100.0 mg/kg/injection, schedule: Q04DX003 (ip), vehicle: saline 112 % of control

FC(F)(F)/C([S-])=C(/[S-])C(F)(F)F.[Fe].[c-]1[c-][c-][cH-][c-]1
inactive: endpoint: mean survival time, dose: 75.0 mg/kg/injection, schedule: Q01DX001 (ip), vehicle: other 105 % of control | endpoint: mean survival time, dose: 150.0 mg/kg/injection, schedule: Q01DX001 (ip), vehicle: other 100 % of control

NC(=O)C(=O)N/N=C/c1ccc2c(c1)CCC2
inactive: [4] 97 % of control | [6] 94 % of control | [14] 92 % of control

CCOc1ccc(-n2c(=O)c(N=Nc3ccccc3OC)c(O)n(-c3ccc(C)cc3)c2=S)cc1
inactive: endpoint: mean survival time, dose: 100.0 mg/kg/injection, schedule: Q01DX001 (ip), vehicle: saline with Tween-80 98 % of control | endpoint: mean survival time, dose: 200.0 mg/kg/injection, schedule: Q01DX001 (ip), vehicle: saline with Tween-80 101 % of control | endpoint: mean survival time, dose: 400.0 mg/kg/injection, schedule: Q01DX001 (ip), vehicle: saline with Tween-80 97 % of control

O=C1C=CC(=O)c2c(O)cccc21
inactive: endpoint: mean survival time, dose: 3.13 mg/kg/injection, schedule: Q01DX009 (ip), vehicle: saline with Tween-80 94 % of control | [2] 92 % of control | [4] 88 % of control

COc1ccc(NC(=O)Oc2ccc(SC)c(C)c2)cc1
inactive: [5] 101 % of control | endpoint: mean survival time, dose: 25.0 mg/kg/injection, schedule: Q04DX002 (ip), vehicle: saline with Tween-80 100 % of control | [15] 95 % of control | endpoint: mean survival time, dose: 50.0 mg/kg/injection, schedule: Q04DX002 (ip), vehicle: saline with Tween-80 107 % of control | [16] 89 % of control | [10] 91 % of control and 104 % of control | [11] 91 % of control

CCC(CC)N=C(N)N
inactive: [5] 100 % of control | endpoint: mean survival time, dose: 25.0 mg/kg/injection, schedule: Q04DX003 (ip), vehicle: saline 100 % of control | [15] 93 % of control | endpoint: mean survival time, dose: 50.0 mg/kg/injection, schedule: Q04DX003 (ip), vehicle: saline 97 % of control | [16] 98 % of control | endpoint: mean survival time, dose: 100.0 mg/kg/injection, schedule: Q04DX003 (ip), vehicle: saline 94 % of control

CC(CNCCN)C[Si](C)(C)C (stereo unspecified)
inactive: [2] 100 % of control | [3] 98 % of control | [5] 104 % of control

CC1(C(=O)O)CC1(C)C(=O)O (stereo unspecified)
inactive: [16] 93 % of control | endpoint: mean survival time, dose: 200.0 mg/kg/injection, schedule: Q01DX009 (ip), vehicle: saline with Tween-80 91 % of control | endpoint: mean survival time, dose: 400.0 mg/kg/injection, schedule: Q01DX009 (ip), vehicle: saline with Tween-80 90 % of control

CC#CC(=O)SCCNC(=O)CCNC(=O)CC(C)(C)C
inactive: [3] 101 % of control | [5] 95 % of control | [6] 106 % of control | [15] 98 % of control | [14] 94 % of control | [16] 88 % of control | [1] 98 % of control

— PubChem BioAssay AID256 (DTP/NCI, 2004)
